The source of these data is patent US10793561B2, “1,8-naphthyridinone compounds and uses thereof” (NUVATION BIO INC., priority 2017, dated 2020).

One may read the IC50 as the midpoint of a concentration-inhibition curve.

The target in experiment [1] is T1, adenosine A2A receptor (Homo sapiens (Human), UniProt P29274). Kind of experiment: Radioligand binding competition assay, adenosine A2A receptor. As to conditions: for A2A radioligand binding competition assay % residual binding @ 3000 nM / inhibition at 3 µM: 3000 nM compound; for inhibition at 3 µM: read-out: A2a binding % inh @ 3000 nM; for inhibition at 0.3 µM: read-out: A2a binding % inh @ 300 nM. On the procedure:
Binding of selected compounds to the adenosine A1, A2A, A2B, and A3 receptors was tested using a binding competition assay.
The general protocol for the radioligand binding competition assay was as follows. Competition binding was performed in duplicate in the wells of a 96 well plate (Master Block, Greiner, 786201) containing binding buffer (optimized for each receptor), membrane extracts (amount of protein/well optimized for each receptor), radiotracer (final concentration optimized for each receptor), and test compound. Nonspecific binding was determined by co-incubation with 200-fold excess of cold competitor. The samples were incubated in a final volume of 0.1 mL at 25° C. for 60 minutes and then filtered over filter plates. Filters were washed six times with 0.5 mL of ice-cold washing buffer (optimized for each receptor) and 50 μL of Microscint 20 (Packard) were added on each filter. The filter plates were sealed, incubated 15 min on an orbital shaker and scintillation counted with a TopCount for 30 sec/filter.
For the adenosine A2A receptor radioligand binding assay, the following modifications were made to the general protocol. GF/C filters (Perkin Elmer, 6005174), presoaked in 0.01% Brij for 2 h at room temperature were used. Filters were washed six times with 0.5 mL of ice-cold washing buffer (50 mM Tris pH 7.4) and 50 μL of Microscint 20 (Packard) was added in each well. The plates were then incubated for 15 min on an orbital shaker and then counted with a TopCount™ for 1 min/well.
Another radioligand binding assay was used to evaluate the binding affinity for the adenosine A2A receptor assay was performed in duplicate in the wells of a 384 plate. Assay buffer contained DPBS 500 mM, MgCl2 0.1 mM, and 1% DMSO. Membrane-bead suspension was prepared by mixing 25.98 μL of human adenosine A2A membrane preparation (Perkin Elmer, RBHA2AM400UA) at 33.4 pg/mL, 28 μL of ADA at 20 pg/mL, and 932 μL of SPA beads at 3.33 mg/mL) and incubated the mixture for 20 min at room temperature. Mixed 20 μL of radiotracer (^3H-SCH 58261) at 15 nM to each well containing test articles at various concentrations and centrifuge the plate at 1000 rpm for 1 minute. Added 30 μL of the membrane-bead suspension to each well. Sealed the plates and incubated for 1 hr at room temperature with vigorous mixing on a plate mixer. Plates were read on Microbeta^2 (Perkin Elmer, 2450-0010).
CHO-K1-A3 cell membranes, 1.5 μg/well; a binding buffer comprising HEPES 25 mM pH 7.4, MgCl2 5 mM, CaCl2 1 mM, 0.5% BSA; a wash buffer comprising HEPES 25 mM pH 7.4, MgCl2 5 mM, CaCl2 1 mM; a Unifilter GF/C—treated for 2 h with 0.5% BS; and 0.4 nM of ^125I-AB-MECA as the tracer. The results of the binding assay are shown in Table B1-1 and are shown as percent residual binding at a given concentration. Percent of residual binding means binding of a compound in the presence of competitor normalized to the amount of binding in the absence of competitor. […] For example, compound 1 strongly bound to A2A (30% residual binding at a concentration of 100 nM), A1 (−3% residual binding at 300 nM) and A2B, (−9% residual binding at 300 nM) but weakly bound to A3 (96% residual binding at 300 nM).

Experiment [2] has as its target T1, adenosine A2A receptor. As to the kind of experiment: cAMP assay in HEK-293 cells expressing human recombinant adenosine A2A receptor. In kind it is cell-based. As to conditions: for inhibition at 0.1 µM / inhibition at 0.3 µM: HEK293; for inhibition at 0.1 µM: 100 nM compound, read-out: A2a cAMP % inh @ 100 nM; for inhibition at 0.3 µM: 300 nM compound, read-out: A2a cAMP % inh @ 300 nM. On the procedure:
The functional activity of compounds was tested using one of the two assays to detect the present of cAMP. Activation of G-protein coupled receptors (such as A2A) results in activation of adenylcyclase which converts ATP into cAMP which is used as a downstream signaling molecule. Therefore, molecules which act as GPCR (or specifically A2A receptor) antagonists cause a decrease in intracellular cAMP concentration.
Both assays used HEK-293 cells expressing human recombinant adenosine A2A receptor were grown prior to the test in media without antibiotic. Assay 1: The cells were detached by gentle flushing with PBS-EDTA (5 mM EDTA), recovered by centrifugation and suspended in assay buffer (KRH: 5 mM KCl, 1.25 mM MgSO4, 124 mM NaCl, 25 mM HEPES, 13.3 mM Glucose, 1.25 mM KH2PO4, 1.45 mM CaCl2, 0.5 g/L BSA, supplemented with Rolipram).
12 μL of cells were mixed with 6 μL of the test compound at increasing concentrations and then incubated for 10 min. Thereafter 6 μL of the reference agonist was added at a final concentration corresponding to the historical EC80. The plates were then incubated for 30 min at room temperature. After addition of the lysis buffer and 1 hour incubation, cAMP concentrations were estimated, according to the manufacturer specification, with the HTRF® kit.
Assay 2: 100 nL of test articles at 100× of final concentration were transferred to assay plate by Echo. Cells were washed twice with 5 mL of PBS […]. After aspirating the PBS and adding 1.5 mL versine, cells were incubated at 37° C. for 2-5 min. After centrifugation, 4 mL of medium was added and adjusted cell density to 5,000 cells/well with stimulation buffer. 10 μL of cells were aliquoted to the assay plate, centrifuged at 1000 rpm for 1 minute, and incubated for 60 minutes at room temperature. 5 μL 4× Eu-cAMP tracer solution and 5 μL 4× Ulight™-anti-cAMP solution were added to assay plate, followed by centrifugation and 60-minute incubation at room temperature. Plates were read on EnVision.
(Cyclic AMP is a second messenger, typically raised through Gs and lowered through Gi signalling.)

The structures appear in SMILES notation.

T1 sequence (P29274 whole entry): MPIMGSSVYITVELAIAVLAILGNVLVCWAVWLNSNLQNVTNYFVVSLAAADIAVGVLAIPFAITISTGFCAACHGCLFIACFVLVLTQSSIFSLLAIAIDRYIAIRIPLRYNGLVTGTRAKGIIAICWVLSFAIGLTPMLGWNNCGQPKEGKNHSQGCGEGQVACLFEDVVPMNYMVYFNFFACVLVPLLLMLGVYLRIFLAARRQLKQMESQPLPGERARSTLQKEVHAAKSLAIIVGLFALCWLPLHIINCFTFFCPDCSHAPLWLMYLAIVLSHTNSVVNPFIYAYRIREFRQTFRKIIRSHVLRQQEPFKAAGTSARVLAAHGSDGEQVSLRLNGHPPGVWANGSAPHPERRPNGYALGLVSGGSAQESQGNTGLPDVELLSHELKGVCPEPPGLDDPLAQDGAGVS

As for `O=c1ccc2cc(-c3cc(Cl)c4ncccc4c3)c(-c3ccccc3)nc2[nH]1` [Compound No. 1.12, 6-(8-chloroquinolin-6-yl)-7-phenyl-1,8-naphthyridin-2 (1H)-one], the “A2A radioligand binding competition assay % residual binding @ 3000 nM” value in experiment [1] was 14/ND/ND/ND %. The inhibition at 0.1 µM in experiment [2] was determined as 100%. For `O=c1cc[nH]c2nc(-c3ccco3)c(-c3ccc4[nH]cnc4c3)cc12` [Compound No. 1.27, 6-(1H-benzo[d]imidazol-5-yl)-7-(furan-2-yl)-1,8-naphthyridin-4(1H)-one], the inhibition at 0.1 µM in experiment [2] came out at 88%. For the compound `Cc1ccn(-c2nc3[nH]ccc(=O)c3cc2-c2ccc3ncccc3c2)n1` [Compound No. 1.92, 7-(3-methyl-1H-pyrazol-1-yl)-6-(quinolin-6-yl)-1,8-naphthyridin-4(1H)-one], in experiment [2] (second cAMP table), the IC50 stood at 357 nM.

In the case of `O=c1ccc2cc(-c3ccncc3)c(-c3ccccc3)nc2[nH]1` [Compound No. 1.34, 7-phenyl-6-(pyridin-4-yl)-1,8-naphthyridin-2(1H)-one], in experiment [1], the inhibition at 3 µM was determined as 30%. Further, the inhibition at 0.3 µM in experiment [2] was 26%. In the case of `Cn1cnc2cc(-c3cc4c(=O)cc[nH]c4nc3-c3ccccc3)ccc21` [Compound No. 1.22, 6-(1-methyl-1H-benzo[d]imidazol-5-yl)-7-phenyl-1,8-naphthyridin-4(1H)-one], the “A2A radioligand binding competition assay % residual binding @ 3000 nM” value in experiment [1] is given as 69/ND/ND/ND %. Besides, in experiment [2], the inhibition at 0.1 µM stood at 30%. The corresponding values for `O=c1cc[nH]c2nc(-c3ccccc3)c(-c3ccc4ncsc4c3)cc12` [Compound No. 1.24, 6-(benzo[d]thiazol-6-yl)-7-phenyl-1,8-naphthyridin-4(1H)-one] are 16/ND/ND/ND % and 83%. The corresponding values for `O=c1cc[nH]c2nc(-c3ccccc3)c(-c3ccc4nccnc4c3)cc12` [Compound No. 1.15, 7-phenyl-6-(quinoxalin-6-yl)-1,8-naphthyridin-4(1H)-one] are 45/ND/ND/ND % and 54%. For `Cc1ccc(-c2nc3[nH]c(=O)ccc3cc2-c2ccc3ncccc3c2)o1` [Compound No. 1.29, 7-(5-methylfuran-2-yl)-6-(quinolin-6-yl)-1,8-naphthyridin-2(1H)-one], the inhibition at 0.1 µM in experiment [2] worked out at 77%. Take `O=c1cc[nH]c2nc(-c3ccncc3)c(-c3ccc4ncccc4c3)cc12` [Compound No. 1.18, 7-(pyridin-4-yl)-6-(quinolin-6-yl)-1,8-naphthyridin-4(1H)-one]: the “A2A radioligand binding competition assay % residual binding @ 3000 nM” value in experiment [1] is reported as 38/ND/ND/ND %. The inhibition at 0.1 µM in experiment [2] is 61%.

With `O=c1cc[nH]c2nc(-c3ccccc3)c(-c3ccc4ocnc4c3)cc12` [Compound No. 1.21, 6-(benzo[d]oxazol-5-yl)-7-phenyl-1,8-naphthyridin-4(1H)-one], the “A2A radioligand binding competition assay % residual binding @ 3000 nM” value in experiment [1] is recorded as 54/ND/ND/ND %. Further, the inhibition at 0.1 µM in experiment [2] is 45%.

`O=c1ccc2cc(-c3ccc4ncccc4c3)c(-c3ccccc3)nc2[nH]1` [1.4, 7-phenyl-6-(quinolin-6-yl)-1,8-naphthyridin-2(1H)-one]: the “A2A radioligand binding competition assay % residual binding @ 100 nM” value in experiment [1] (100 nM compound) is recorded as 71%. Further, the “A2A radioligand binding competition assay % residual binding @ 300 nM” value in experiment [1] (300 nM compound) was 79%. Also, the “A2A radioligand binding competition assay % residual binding @ 1000 nM” value in experiment [1] (1000 nM compound) turned out to be 17%. The “A2A radioligand binding competition assay % residual binding @ 3000 nM” value in experiment [1] is 19%. Moreover, the inhibition at 0.1 µM in experiment [2] turned out to be 82%. With `Cc1cc(-c2cc3ccc(=O)[nH]c3nc2-c2ccccc2)cc(C)n1` [Compound No. 1.33, 6-(2,6-dimethylpyridin-4-yl)-7-phenyl-1,8-naphthyridin-2(1H)-one], in experiment [1], the inhibition at 3 µM was 30%. The inhibition at 0.3 µM in experiment [2] worked out at 60%. Take `Cc1ccc(-c2nc3[nH]ccc(=O)c3cc2-c2ccc3ncccc3c2)o1` [Compound No. 1.25, 7-(5-methylfuran-2-yl)-6-(quinolin-6-yl)-1,8-naphthyridin-4(1H)-one]: the “A2A radioligand binding competition assay % residual binding @ 3000 nM” value in experiment [1] was 0/ND/ND/ND %. In experiment [2] (first cAMP table), the IC50 was determined as 18.8 nM.

With `O=c1cc[nH]c2nc(-c3ccccc3)c(-c3ccc4[nH]ncc4c3)cc12` [Compound No. 1.102, 6-(3a,7a-dihydro-1H-indazol-5-yl)-7-phenyl-1,8-naphthyridin-4(1H)-one], the inhibition at 3 µM in experiment [1] is 77%. Further, the IC50 in experiment [2] (second cAMP table) was 292 nM.

As to `O=c1cc[nH]c2nc(-c3ccccc3)c(-c3ccc4ncncc4c3)cc12` [Compound No. 1.101], the inhibition at 3 µM in experiment [1] is 72%. Also, the IC50 in experiment [2] (second cAMP table) came out at 182 nM. On to `Cc1cc(-c2cc3c(=O)cc[nH]c3nc2-c2ccccc2)cc(C)n1` [1.3, 6-(2,6-dimethylpyridin-4-yl)-7-phenyl-1,8-naphthyridin-4(1H)-one], for which the “A2A radioligand binding competition assay % residual binding @ 3000 nM” value in experiment [1] was 50/ND/ND/ND %. Also, the inhibition at 0.1 µM in experiment [2] came out at 50%. As for `Cc1cc(Cl)cc(-c2cc3ccc(=O)[nH]c3nc2-c2ccccc2)c1` [Compound No. 1.35, 6-(3-chloro-5-methylphenyl)-7-phenyl-1,8-naphthyridin-2(1H)-one], the inhibition at 3 µM in experiment [1] amounted to 0%. Also, the inhibition at 0.3 µM in experiment [2] came to 12%.

In the case of `O=c1cc[nH]c2nc(-c3ccccc3)c(-c3cccc(Cl)c3)cc12` [Compound No. 1.30, 6-(3-chlorophenyl)-7-phenyl-1,8-naphthyridin-4(1H)-one], in experiment [1] (300 nM compound), the inhibition at 0.3 µM was determined as 0%. Turning to `COc1cc(-c2cc3c(=O)cc[nH]c3nc2-c2ccccc2)cc2cccnc12` [Compound No. 1.26, 6-(8-methoxyquinolin-6-yl)-7-phenyl-1,8-naphthyridin-4(1H)-one], the inhibition at 0.1 µM in experiment [2] stood at 64%. Consider `O=c1ccc2cc(-c3ccc4[nH]c(=O)[nH]c4c3)c(-c3ccccc3)nc2[nH]1` [Compound No. 1.32, 6-(2-oxo-2,3-dihydro-1H-benzo[d]imidazol-5-yl)-7-phenyl-1,8-naphthyridin-2(1H)-one], for which the inhibition at 0.3 µM in experiment [1] (300 nM compound) is 0%. The same measure, in the same setting: under `O=c1ccc2cc(-c3cccc(Cl)c3)c(-c3ccccc3)nc2[nH]1` [Compound No. 1.31, 6-(3-chlorophenyl)-7-phenyl-1,8-naphthyridin-2(1H)-one] stands 0%. For the compound `O=c1cc[nH]c2nc(-c3cccnc3)c(-c3ccc4ncccc4c3)cc12` [Compound No. 1.28, 7-(pyridin-3-yl)-6-(quinolin-6-yl)-1,8-naphthyridin-4(1H)-one], the inhibition at 0.1 µM in experiment [2] was 46%.
